Assay results as given in US20260191823A1, “PROPHYLACTIC OR THERAPEUTIC AGENT FOR ACUTE KIDNEY INJURY INDUCED BY ANTICANCER AGENT” (KYOWA HAKKO BIO CO., LTD., priority 2022, published 2026).

Experiments:
[1] = system: Human proximal renal tubular cells (HK-2); experiment: Suppression effect on cisplatin-induced cytotoxicity in renal tubular cells (cell counting kit-8); type: cell-based; settings: for suppression of cell death over the tested concentrations: 0.01-100 μM test compound, cisplatin 20 μM for 24 h; for suppression of cell death over the tested concentrations / concentration showing a significant cell death-suppressing effect: FIG. 1; for concentration showing a significant cell death-suppressing effect: 0.5 h pre-treatment with test compound, then cisplatin 20 μM for 24 h
Method: Human proximal renal tubular cells (HK-2) were seeded into a 96-well plate containing medium at a density of 5×10^3 cells/well. After confirming that the seeded cells had adhered to the plate, each test compound (GSSSG or Na2S4) was added so that the final concentration was 0 μM, 0.01 μM, 0.02 μM, 0.10 μM, 0.39 μM, 1.56 μM, 6.25 μM, 25 μM, or 100 μM, followed by standing at 37° C. for 0.5 hours. Each test compound was dissolved in PBS and then added.
The supernatant in each well was removed, and the cells were washed with PBS. […] Thereafter, cell viability was evaluated using cell counting kit-8 (Dojindo).
The composition of the medium used in Example 1 was as follows: • D-MEM/Ham's F-12 (FUJIFILM Wako Pure Chemical Corporation)+Penicillin-Streptomycin-Amphotericin B (FUJIFILM Wako Pure Chemical Corporation)+GlutaMAX (Thermo Fisher Scientific)+10% FBS.

[2] = system: cisplatin-induced acute kidney injury model animal; experiment: Cisplatin-induced acute kidney injury model animal; type: in vivo; settings: administration group
[3] = system: cisplatin-induced renal injury; settings: 5.6 mg/kg intraperitoneal; cited from earlier work
[4] = system: renal dysfunction caused by administration of cisplatin; settings: 300 mg/kg intraperitoneally; cited from earlier work

Compound	suppression of cell death over the tested concentrations ([1]; HK-2 cells)	concentration showing a significant cell death-suppressing effect ([1]; HK-2 cells) [µM]	cell death-suppressing effect relative to Na2S4 ([1]; HK-2 cells, cisplatin 20 μM, compares 0.1 μM with 100 μM)	number of viable renal tubular cells ([1]; test compound 0.1 μM, cisplatin added, fluorescence images, FIG. 2)	elevation of blood urea nitrogen (BUN) level [2]	elevation of serum creatinine (CRE) level [2]	effect on cisplatin-induced renal injury [3]	cisplatin-induced body weight suppression [4]	cisplatin-induced elevated blood urea nitrogen [4]
N[C@@H](CCC(=O)N[C@@H](CSSSC[C@H](NC(=O)CC[C@H](N)C(=O)O)C(=O)NCC(=O)O)C(=O)NCC(=O)O)C(=O)O [GSSSG, glutathione trisulfide]	tendency to suppress cell death in a concentration-dependent manner	0.1	about 1000 times	notably higher	could be suppressed	could be suppressed			
[Na+].[Na+].[S-]SS[S-] [Na2S4, reference compound]	tendency to suppress cell death in a concentration-dependent manner	100					effective		
CC(C)OC(=O)CNC(=O)C(CS)NC(=O)CCC(N)C(=O)O.O=S(=O)(O)O (centres unmarked) [glutathione monoisopropyl ester sulfate]								alleviates	alleviates
